Measured values published in ChEMBL document CHEMBL4765282, “Design, synthesis and biological evaluation of 1H-pyrazolo [3,4-d]pyrimidine derivatives as PAK1 inhibitors that trigger apoptosis, ER stress and anti-migration effect in MDA-MB-231 cells” (Eur J Med Chem, 2020).
Calls of active or inactive are those of the source. The calls are words filed in the database; no cut-off is given here.

Key:
MDA-MB-231 [1] = assay: Up regulation of FOXO3a expression in human MDA-MB-231 cells at 10 to 40 uM measured after 24 hrs by Western blot analysis; type: functional, cell-based; settings: dose 10-40 µM
MDA-MB-231 [2] = assay: Induction of apoptosis in human MDA-MB-231 cells assessed as increase in late apoptosis measured after 24 hrs by Annexin V-FITC/propidium iodide staining based flow cytometry; type: functional, cell-based
[3] = Effect on G0S2 gene expression in human MDA-MB-231 cells by Trizol reagent based RNA sequencing analysis relative to control; type: functional

## O=C(Nc1cc(C(F)(F)F)cc(C(F)(F)F)c1)NC1CCN(c2ncnc3[nH]ncc23)CC1
MDA-MB-231 [1]
  Activity: Active
MDA-MB-231 [2]
  Activity: Dose-dependent effect
[3]
  fold change (FC): >2
